Data taken from patent US12012411B2, “Viral replication inhibitors” (Katholieke Universiteit Leuven, priority 2011, dated 2024).

What was measured:
DENV-2 NGC = assay: Antiviral activity against DENV-2 NGC in Vero-B cells (viral RNA load by RT-qPCR); format: cell-based, Dengue virus; settings: Dengue virus, DENV2, Vero B, DENV-2 in Vero-B cells; inhibition of viral RNA replication by 50% (Table 3)
in vitro = settings: African green monkey; for CC50 at 4 days: uninfected quiescent Vero-B cells
[1] = tested on: DENV-4 strain Dak HD 34 460; assay: Antiviral activity against DENV-4 in Vero-B cells (viral RNA load by RT-qPCR); format: cell-based, Dengue virus; settings: Dengue virus, DENV4, Vero B
[2] = tested on: DENV-3 strain H87 prototype; assay: Antiviral activity against DENV-3 in Vero-B cells (viral RNA load by RT-qPCR); format: cell-based, Dengue virus; settings: Dengue virus, DENV3, Vero B
[3] = tested on: DENV-1 Djibouti strain D1/H/IMTSSA/98/606; assay: Antiviral activity against DENV-1 in Vero-B cells (viral RNA load by RT-qPCR); format: cell-based, Dengue virus; settings: Dengue virus, DENV1, Vero B

Row | Structure (SMILES) | EC50 (DENV-2 NGC) | CC50 at 4 days (in vitro) | EC50 [1] | EC50 [2] | EC50 [3] | CC50 (in vitro)
1 | COc1cccc(NC(C(=O)c2c[nH]c3ccc(C#N)cc23)c2ccccc2)c1 (centres unmarked) [CPD-126] | 70 nM | 16000 nM | 6290 nM | 8500 nM | 2990 nM | –
2 | COc1cccc(NC(C(=O)c2c[nH]c3ccc(C)cc23)c2ccccc2)c1 (centres unmarked) [CPD-130] | 30 nM | 15000 nM | 7420 nM | 1700 nM | 350 nM | –
3 | COc1cccc(NC(C(=O)c2cn(C)c3ccc(F)cc23)c2ccccc2)c1 (centres unmarked) [CPD-137] | 50 nM | > 128000 nM | 2780 nM | 3810 nM | 670 nM | –
4 | COc1cccc(NC(C(=O)c2cn(CCO)c3ccc(F)cc23)c2ccccc2)c1 (centres unmarked) [CPD-146] | 50 nM | – | 4250 nM | 2720 nM | 690 nM | 25000 nM
5 | COc1cc(NC(C(=O)c2cn(CCO)c3ccccc23)c2ccccc2)cc(OC)c1 (centres unmarked) [CPD-148] | 70 nM | – | 2870 nM | 5540 nM | 1650 nM | 44000 nM
6 | COc1cccc(NC(C(=O)c2c[nH]c3cc(Cl)ccc23)c2cn3ccccc3n2)c1 (centres unmarked) [CPD-150] | 30 nM | 105000 nM | 8870 nM | 1070 nM | 1280 nM | –
7 | COc1cccc(NC(C(=O)c2c[nH]c3ccc(F)cc23)c2cccnc2)c1 (centres unmarked) [CPD-151] | 90 nM | > 133000 nM | 4870 nM | 2100 nM | 530 nM | –
8 | COc1cccc(NC(C(=O)c2c[nH]c3cc(F)ccc23)c2cccnc2)c1 (centres unmarked) [CPD-152] | 90 nM | 75000 nM | 5620 nM | 990 nM | 2050 nM | –
9 | COc1cccc(NC(C(=O)c2c[nH]c3c(F)cccc23)c2cccnc2)c1 (centres unmarked) [CPD-153] | 290 nM | > 133000 nM | 3680 nM | 2260 nM | 6260 nM | –
10 | COc1cccc(NC(C(=O)c2c[nH]c3ccc(F)cc23)c2ccc(OC)nc2)c1 (centres unmarked) [CPD-154] | 60 nM | 44000 nM | 9870 nM | 4400 nM | 3920 nM | –
11 | COc1cc(NC(C(=O)c2cn(CCCO)c3ccc(F)cc23)c2ccccc2)cc(OC)c1 (centres unmarked) [CPD-156] | 20 nM | – | 3370 nM | 2120 nM | 610 nM | 11000 nM
12 | COc1cncc(NC(C(=O)c2c[nH]c3cc(F)ccc23)c2ccccc2)c1 (centres unmarked) [CPD-157] | 50 nM | 15000 nM | 5100 nM | 850 nM | 1310 nM | –
13 | COc1cncc(NC(C(=O)c2c[nH]c3ccccc23)c2ccc(OC)nc2)c1 (centres unmarked) [CPD-158] | 90 nM | 63000 nM | 7200 nM | 2190 nM | 2500 nM | –
14 | COc1cncc(NC(C(=O)c2c[nH]c3ccccc23)c2ccc(C#N)cc2)c1 (centres unmarked) [CPD-159] | 110 nM | 67000 nM | 6860 nM | 3160 nM | 1480 nM | –
15 | COc1cccc(NC(C(=O)c2nn(C)c3ccccc23)c2ccccc2)c1 (centres unmarked) [CPD-203] | 730 nM | > 134000 nM | 5320 nM | 5060 nM | 5090 nM | –
16 | COc1cc(NC(C(=O)c2c[nH]c3ccc(F)cc23)c2ccc(OC)nc2)cc(OC)c1 (centres unmarked) [CPD-206] | 20 nM | 12000 nM | 1520 nM | 670 nM | 370 nM | –
17 | COc1cccc(NC(C(=O)c2c[nH]c3cc(F)ccc23)c2ccc(OC)nc2)c1 (centres unmarked) [CPD-213] | 60 nM | 15000 nM | 2850 nM | 2540 nM | 810 nM | –

Row | Structure (SMILES) | EC50 (DENV-2 NGC) | CC50 at 4 days (in vitro) | EC50 [1] | EC50 [2] | EC50 [3] | CC50 (in vitro)
18 | COc1cccc(NC(C(=O)c2c[nH]c3ccccc23)c2ccc(F)nc2)c1 (centres unmarked) [CPD-214] | 30 nM | 16000 nM | 4160 nM | 990 nM | 150 nM | –
19 | COc1cccc(NC(C(=O)c2c[nH]c3c(OC)cccc23)c2ccccc2)c1 (centres unmarked) [CPD-222] | 130 nM | > 129000 nM | 3140 nM | 3270 nM | 1810 nM | –
20 | COc1cccc(NC(C(=O)c2c[nH]c3ccc(S(C)(=O)=O)cc23)c2ccccc2)c1 (centres unmarked) [CPD-229] | 2400 nM | > 115000 nM | 7550 nM | 43000 nM | 2810 nM | –
21 | COc1cc(NC(C(=O)c2c[nH]c3nc(C)ccc23)c2ccccc2)cc(OC)c1 (centres unmarked) [CPD-232] | 100 nM | > 125000 nM | 1150 nM | 2690 nM | 850 nM | –
22 | COc1cc(NC(C(=O)c2c[nH]c3ccccc23)c2ccc(C#N)cc2)cc(OC)c1 (centres unmarked) [CPD-233] | 10 nM | 11000 nM | 3090 nM | 1290 nM | 220 nM | –
23 | COc1cc(NC(C(=O)c2c[nH]c3ncc(F)cc23)c2ccccc2)cc(OC)c1 (centres unmarked) [CPD-234] | 50 nM | 15000 nM | 4190 nM | 2000 nM | 760 nM | –
24 | COc1cccc(NC(C(=O)c2c[nH]c3ccccc23)c2cn3ncccc3n2)c1 (centres unmarked) [CPD-238] | 40 nM | > 125000 nM | 10200 nM | 1650 nM | 540 nM | –
25 | COc1cccc(NC(C(=O)c2c[nH]c3ccccc23)c2cnc(OC)nc2)c1 (centres unmarked) [CPD-240] | 110 nM | 63000 nM | 8730 nM | 2380 nM | 1200 nM | –
26 | COc1cncc(NC(C(=O)c2c[nH]c3ccc(F)cc23)c2ccc(OC)nc2)c1 (centres unmarked) [CPD-241] | 40 nM | 58000 nM | 5690 nM | 620 nM | 620 nM | –
27 | COc1cccc(NC(C(=O)c2cn(CCO)c3cc(F)ccc23)c2ccccc2)c1 (centres unmarked) [CPD-245] | 80 nM | – | 3010 nM | 2380 nM | 700 nM | 16000 nM
28 | COc1cccc(NC(C(=O)c2c[nH]c3ccccc23)c2cnc(OC)cn2)c1 (centres unmarked) [CPD-249] | 100 nM | 53000 nM | 1980 nM | 4570 nM | 1130 nM | –
29 | COc1cc(NC(C(=O)c2c[nH]c3ccccc23)c2ccccc2)cnc1OC (centres unmarked) [CPD-256] | 190 nM | 83000 nM | 19900 nM | 4490 nM | 6760 nM | –
30 | COc1cccc(NC(C(=O)c2nn(C)c3ccccc23)c2ccc(C#N)cc2)c1 (centres unmarked) [CPD-260] | 80 nM | > 126000 nM | 5440 nM | 22600 nM | 6630 nM | –
31 | COc1cc(NC(C(=O)c2nn(C)c3ccccc23)c2ccccc2)cc(OC)c1 (centres unmarked) [CPD-265] | 20 nM | > 124000 nM | 4880 nM | 1640 nM | 290 nM | –
32 | COc1cccc(NC(C(=O)c2nn(C)c3cc(OC)ccc23)c2ccccc2)c1 (centres unmarked) [CPD-266] | 60 nM | > 124000 nM | 3510 nM | 4320 nM | 700 nM | –
33 | COc1cccc(NC(C(=O)c2nn(C)c3ccccc23)c2cc3ccccn3n2)c1 (centres unmarked) [CPD-273] | 320 nM | > 122000 nM | 8410 nM | 7660 nM | 580 nM | –
34 | COc1cc(CO)cc(NC(C(=O)c2nn(C)c3ccccc23)c2ccccc2)c1 (centres unmarked) [CPD-278] | 270 nM | > 125000 nM | 5800 nM | 13200 nM | 2840 nM | –
